# In US20120178796A1, “SPLICE VARIANTS” (priority 2009, published 2012):
# Legend:
# Type in all cases: cell-based, human
# p53 [1] = experiment: Immunoblot of p53 protein and p53 acetylation after siRNA silencing, HCT116 cells
# Procedure: (§1) Isogenic colorectal carcinoma cell lines HCT116 p53+/+ and HCT116 p53-/- were cultured in DMEM supplemented with 10% FBS. Non-cancer retinal epithelial cell line ARPE-19 was cultured in DMEM:F12 supplemented with 10% FBS. Cells used in experiments were low passage number (not >8 splits from nitrogen). Transfection of siRNA were as described (Ford et al., 2005; Ford et al., 2008). SIRT1 FL siRNA (targeting SIRT1 FL and SIRT1 ΔEx3-4) is sited within exon8; SIRT1 ΔEx8 siRNA (targeting SIRT1 ΔEx8 and SIRT1 ΔEx3-4-8) is located across the alternate exon7-exon9 splice. Sequences and locations of siRNAs are detailed in the Supplementary Table 3.
# p53 [2] = experiment: Immunoblot of p53 protein and p53 acetylation after siRNA silencing or stress, ARPE19 cells; conditions: for p53 induction in response to DNA damaging agent: agent alone
# Procedure: as §1
# SIRT1 Δ2-9 mRNA = SIRT1 Δ2-9 mRNA knock-down by RT-PCR in ARPE19 and HCT116 cells
# Procedure: as §1
# Standard RT-PCR was performed on a DNA Engine Dyad (MJ Research) using a One-Step RT-PCR kit (Qiagen). Reaction endpoints were electrophoresed on agarose gels, visualised on a UV transilluminator (Appligene) and images captured with a DS34 camera (Polaroid). […] Total RNA from cell experiments was isolated using an RNeasy kit (Qiagen) and quantitated by UV spectroscopy (GeneSpecV). For qRT-PCR, reactions were run in quadruplicate on a DNA Engine Opticon (BioRad) using a QuantiTect SYBR Green RT-PCR kit (Qiagen). […]
# In order to look at the functional significance of SIRT1 Δ2-9, a siRNA was designed to the splice junction region of exon-2 and exon-9. […] These changes were also confirmed by quantitative RT-PCR (FIG. 20E). […]
# [3] = test system: HCT116 colorectal cancer cells; experiment: Apoptosis after siRNA silencing (micrographs, annexin V staining), HCT116 cells; conditions: single dose of siRNA, basal conditions
# Procedure: as §1
# (§2) Digital phase contrast cell images were captured on an Axiovert Cell Observer (Zeiss). Quantification of apoptosis was performed using an AnnexinV-Fluos kit (Roche) according to the manufacturer's instructions, with analysis by flow cytometry on a FACSCalibur (BD) using CellQuest software.
# [4] = test system: ARPE19 retinal epithelial cells; experiment: Morphological neuronal differentiation of ARPE19 cells (phase contrast micrographs); conditions: for morphological differentiation towards neuronal phenotype after siRNA silencing: 72 h to 96 hr after siRNA
# Procedure: as §1, §2
# Cells were treated for 48 h with 1 μM fenretinide in OPTIMEM media 24 h following siRNA transfection. Before addition of fenretinide cells were first washed with OPTIMEM to remove serum. 48 h later fenretinide was removed by washing with OPTIMEM and normal growth media with serum was added. Cells were then monitored by microscopy for a further 48 h.
# [5] = test system: ARPE19 non-cancer epithelial cells; experiment: Apoptosis after siRNA silencing, ARPE19 cells
# Procedure: as §1, §2
Molecule,"accumulation of total p53 protein (p53 [1]; HCT116 cells, basal conditions)",induction of apoptosis [3],morphological differentiation towards neuronal phenotype after siRNA silencing [4],p53 induction in response to DNA damaging agent (p53 [2]),also measured
CCUUCUGUUCGUUCUUGUG [SIRT1 Δ2-9 siRNA],–,–,–,–,"p53 protein level (Western blot) (p53 [1]; HCT116 p53+/+ cells): significantly reduced; p53 protein level (Western blot) (p53 [2]): significantly reduced; stress-induced p53 induction in siRNA treated samples (p53 [2]; Etoposide, UV or 5FU in combination with siRNA): attenuated; SIRT1 Δ2-9 mRNA expression (SIRT1 Δ2-9 mRNA): almost completely abolished"
UAAUUCCAAGUAAUCAGUA [SIRT1 ΔEx8 siRNA],A similar effect was not observed,did not induce apoptosis,did not induce morphological differentiation,–,–
"O=c1[nH]cc(F)c(=O)[nH]1 [SFU, reference compound]",–,–,–,induced substantially,–
"COc1cc([C@@H]2c3cc4c(cc3[C@@H](O[C@@H]3O[C@@H]5CO[C@@H](C)O[C@H]5[C@H](O)[C@H]3O)[C@H]3COC(=O)[C@H]23)OCO4)cc(OC)c1O [Etoposide, reference compound]",–,–,–,induced substantially,–
ACUUUGCUGUAACCCUGUA [SIRT1 FL siRNA],approximately 10 fold,induced massive apoptosis,induces neuronal differentiation,–,"increase of p53 acetylation levels (p53 [1]; HCT116 cells, basal conditions): more than 50 fold; induction of apoptosis [5]: fails to induce apoptosis"
"CC1=C(/C=C/C(C)=C/C=C/C(C)=C/C(=O)Nc2ccc(O)cc2)C(C)(C)CCC1 [fenretinide, reference compound]",–,–,–,–,"neuronal differentiation induced by compound ([4]; 1 μM, 48 h, OPTIMEM): can be induced"
